Results on four molecules are retold here after ChEMBL document CHEMBL3994622, “Design and synthesis of new RAF kinase-inhibiting antiproliferative quinoline derivatives. Part 2: Diarylurea derivatives” (Eur J Med Chem, 2017).

Molecules are shown by their SMILES.

What all share (assay type): functional
One test has as its system OVCAR-8. The test can be described thus: Growth inhibition of human OVCAR8 cells assessed as cell growth at 0.003 uM incubated for 48 hrs by sulforhodamine B assay relative to control. Particulars: OVCAR-8, 48 h, read-out: Activity. In general terms: In SRB staining, fixed cells bind dye roughly in proportion to their protein.
The test system of another test is SF-295. The test can be described thus: Growth inhibition of human SF295 cells assessed as cell growth at 3 uM incubated for 48 hrs by sulforhodamine B assay relative to control. Particulars: SF-295, 48 h, read-out: Activity.
The next test deals with HCC 2998. As to the kind of experiment: Growth inhibition of human HCC2998 cells assessed as cell growth at 3 uM incubated for 48 hrs by sulforhodamine B assay relative to control. Particulars: HCC 2998, 48 h, read-out: Activity.
For another test, the system named is UACC-257. The test can be described thus: Growth inhibition of human UACC257 cells assessed as cell growth at 3 uM incubated for 48 hrs by sulforhodamine B assay relative to control. Particulars: UACC-257, 48 h, read-out: Activity.
In test [1] the test system is NCI-H23. The test can be described thus: Growth inhibition of human NCI-H23 cells assessed as cell growth at 0.003 uM incubated for 48 hrs by sulforhodamine B assay relative to control. The conditions noted are these: NCI-H23, 48 h, read-out: Activity.
For the next test, the system named is MDA-MB-231. As to the kind of experiment: Growth inhibition of human MDA-MB-231 cells assessed as cell growth at 0.003 uM incubated for 48 hrs by sulforhodamine B assay relative to control. Particulars: MDA-MB-231, 48 h, read-out: Activity.
For test [2], the system named is SK-OV-3. The test can be described thus: Growth inhibition of human SKOV3 cells assessed as cell growth at 3 uM incubated for 48 hrs by sulforhodamine B assay relative to control. Particulars: SK-OV-3, 48 h, read-out: Activity.
The next test has as its system SNB-75. As to the kind of experiment: Growth inhibition of human SNB75 cells assessed as cell growth at 0.3 uM incubated for 48 hrs by sulforhodamine B assay relative to control. Particulars: SNB-75, 48 h, read-out: Activity.
The next test relates to OVCAR-4. As to the kind of experiment: Growth inhibition of human OVCAR4 cells assessed as cell growth at 3 uM incubated for 48 hrs by sulforhodamine B assay relative to control. Particulars: OVCAR-4, 48 h, read-out: Activity.
The subject of test [3] is SK-OV-3. As to the kind of experiment: Growth inhibition of human SKOV3 cells assessed as cell growth at 0.03 uM incubated for 48 hrs by sulforhodamine B assay relative to control. The conditions noted are these: SK-OV-3, 48 h, read-out: Activity.
In a further test the test system is SF-268. The test can be described thus: Growth inhibition of human SF268 cells assessed as cell growth at 3 uM incubated for 48 hrs by sulforhodamine B assay relative to control. The conditions noted are these: SF-268, 48 h, read-out: Activity.
A further test deals with T47D. As to the kind of experiment: Growth inhibition of human T47D cells assessed as cell growth at 30 uM incubated for 48 hrs by sulforhodamine B assay relative to control. Particulars: read-out: Activity.
Test [4] relates to SK-MEL-28. The test can be described thus: Growth inhibition of human SK-MEL-28 cells assessed as cell growth at 0.3 uM incubated for 48 hrs by sulforhodamine B assay relative to control. Particulars: SK-MEL-28, 48 h, read-out: Activity.
A further test concerns SF-539. As to the kind of experiment: Growth inhibition of human SF539 cells assessed as cell growth at 30 uM incubated for 48 hrs by sulforhodamine B assay relative to control. The conditions noted are these: SF-539, 48 h, read-out: Activity.
The subject of test [5] is HOP-62. The test can be described thus: Growth inhibition of human HOP62 cells assessed as cell growth at 0.3 uM incubated for 48 hrs by sulforhodamine B assay relative to control. The conditions noted are these: HOP-62, 48 h, read-out: Activity.
Test [6] deals with NCI-H23. As to the kind of experiment: Growth inhibition of human NCI-H23 cells assessed as cell growth at 3 uM incubated for 48 hrs by sulforhodamine B assay relative to control. The conditions noted are these: NCI-H23, 48 h, read-out: Activity.
The test system of another test is Hs-578T. The test can be described thus: Growth inhibition of human Hs 578T cells assessed as cell growth at 0.3 uM incubated for 48 hrs by sulforhodamine B assay relative to control. The conditions noted are these: read-out: Activity.
Another test concerns UO-31. The test can be described thus: Growth inhibition of human UO31 cells assessed as cell growth at 1 uM incubated for 48 hrs by sulforhodamine B assay relative to control. Particulars: UO-31, 48 h, read-out: Activity.
The test system of another test is KM12. The test can be described thus: Growth inhibition of human KM12 cells assessed as cell growth at 0.01 uM incubated for 48 hrs by sulforhodamine B assay relative to control. The conditions noted are these: KM12, 48 h, read-out: Activity.
A further test has as its system OVCAR-3. As to the kind of experiment: Growth inhibition of human OVCAR3 cells assessed as cell growth at 100 uM incubated for 48 hrs by sulforhodamine B assay relative to control. Particulars: OVCAR-3, 48 h, read-out: Activity.
For a further test, the system named is NCI-H522. As to the kind of experiment: Growth inhibition of human NCI-H522 cells assessed as cell growth at 100 uM incubated for 48 hrs by sulforhodamine B assay relative to control. Particulars: NCI-H522, 48 h, read-out: Activity.
The subject of another test is MDA-MB-435. As to the kind of experiment: Growth inhibition of human MDA-MB-435 cells assessed as cell growth at 0.01 uM incubated for 48 hrs by sulforhodamine B assay relative to control. The conditions noted are these: MDA-MB-435, 48 h, read-out: Activity.
The subject of a further test is NCI-H226. The test can be described thus: Growth inhibition of human NCI-H226 cells assessed as cell growth at 1 uM incubated for 48 hrs by sulforhodamine B assay relative to control. Particulars: NCI-H226, 48 h, read-out: Activity.
Test [7] has as its system LOX IMVI. The test can be described thus: Growth inhibition of human LOXIMVI cells assessed as cell growth at 10 uM incubated for 48 hrs by sulforhodamine B assay relative to control. Particulars: read-out: Activity.
In the next test the test system is MCF7. As to the kind of experiment: Growth inhibition of human MCF7 cells assessed as cell growth at 0.01 uM incubated for 48 hrs by sulforhodamine B assay relative to control. The conditions noted are these: MCF7, 48 h, read-out: Activity.
The test system of the next test is UACC-62. The test can be described thus: Growth inhibition of human UACC62 cells assessed as cell growth at 100 uM incubated for 48 hrs by sulforhodamine B assay relative to control. The conditions noted are these: UACC-62, 48 h, read-out: Activity.
Another test deals with K562. The test can be described thus: Growth inhibition of human K562 cells assessed as cell growth at 1 uM incubated for 48 hrs by sulforhodamine B assay relative to control. Particulars: K562, 48 h, read-out: Activity.
Test [8] concerns LOX IMVI. As to the kind of experiment: Growth inhibition of human LOXIMVI cells assessed as cell growth at 0.01 uM incubated for 48 hrs by sulforhodamine B assay relative to control. Particulars: read-out: Activity.
The subject of another test is M14. As to the kind of experiment: Growth inhibition of human M14 cells assessed as cell growth at 0.1 uM incubated for 48 hrs by sulforhodamine B assay relative to control. Particulars: M14, 48 h, read-out: Activity.
The test system of the next test is RXF 393. As to the kind of experiment: Growth inhibition of human RXF393 cells assessed as cell growth at 100 uM incubated for 48 hrs by sulforhodamine B assay relative to control. The conditions noted are these: RXF 393, 48 h, read-out: Activity.
Test [9] relates to HOP-62. The test can be described thus: Growth inhibition of human HOP62 cells assessed as cell growth at 0.01 uM incubated for 48 hrs by sulforhodamine B assay relative to control. Particulars: HOP-62, 48 h, read-out: Activity.
In a further test the test system is HOP-92. As to the kind of experiment: Growth inhibition of human HOP92 cells assessed as cell growth at 0.01 uM incubated for 48 hrs by sulforhodamine B assay relative to control. Particulars: HOP-92, 48 h, read-out: Activity.
Test [10] has as its system SK-MEL-28. As to the kind of experiment: Growth inhibition of human SK-MEL-28 cells assessed as cell growth at 0.1 uM incubated for 48 hrs by sulforhodamine B assay relative to control. Particulars: SK-MEL-28, 48 h, read-out: Activity.
In test [11] the test system is LOX IMVI. The test can be described thus: Growth inhibition of human LOXIMVI cells assessed as cell growth at 100 uM incubated for 48 hrs by sulforhodamine B assay relative to control. The conditions noted are these: read-out: Activity.

Consider `Cc1nc2cc(O)c(O)cc2cc1Oc1ccc(NC(=O)Nc2ccc(Cl)c(Cl)c2)cc1`, for which the growth at 0.003 µM in the test on OVCAR-8 is 98%; in the test on NCI-H23 [1], 96%; in the test with MDA-MB-231 it was 110%. Moreover, the growth at 3 µM in the test with SF-295 is 98%; in the test on HCC 2998, 96%; with UACC-257, 87%; with SK-OV-3 [2], 103%; with OVCAR-4 it was 87%; in the test with SF-268, 85%. Besides, in the test on NCI-H23 [6], the growth at 3 µM is 87%. Moreover, the growth at 0.3 µM stood at 75% in the test on SNB-75, 87% in the test on SK-MEL-28 [4], 108% in the test with HOP-62 [5] and 91% in the test on Hs-578T. Besides, the growth at 0.03 µM in the test with SK-OV-3 [3] turned out to be 102%. Further, the growth at 30 µM in the test on T47D was 10%; in the test with SF-539 it was -19%.

For `COc1cc2cc(Oc3ccc(NC(=O)Nc4ccc(Cl)c(C(F)(F)F)c4)cc3)c(C)nc2cc1OC`, the growth at 0.003 µM in the test on OVCAR-8 amounted to 94%; with NCI-H23 [1], 97%; in the test with MDA-MB-231 it was 101%. Besides, the growth at 3 µM was -5% in the test on SF-295; 29% with HCC 2998; -13% in the test with UACC-257; 17% in the test on SK-OV-3 [2]; 23% in the test on OVCAR-4; 26% in the test on SF-268. The growth at 3 µM in the test with NCI-H23 [6] turned out to be 5%. Further, the growth at 0.3 µM turned out to be 90% with SNB-75, 91% with SK-MEL-28 [4], 86% with HOP-62 [5] and 84% with Hs-578T. The growth at 0.03 µM in the test with SK-OV-3 [3] is 100%. For the same molecule, the figures for the growth at 30 µM with T47D and with SF-539 were -30% and -49%, respectively.

With `COc1cc2cc(Oc3ccc(NC(=O)Nc4ccc(Cl)c(Cl)c4)cc3)c(C)nc2cc1OC`, the values for the growth at 1 µM with UO-31, with NCI-H226 and in the test on K562 were 100%, 106% and 88%, respectively. For the same molecule, the growth at 0.01 µM in the test on KM12 was 103%; in the test with MDA-MB-435 it was 94%; in the test on MCF7, 95%; in the test with LOX IMVI [8] it was 95%; in the test with HOP-62 [9], 102%; in the test on HOP-92, 95%. Moreover, the growth at 100 µM in the test with OVCAR-3 was -98%; in the test on NCI-H522, -63%; in the test on UACC-62, -63%; with RXF 393, -65%; in the test on LOX IMVI [11], -100%. In the test on LOX IMVI [7], the growth at 10 µM is 20%. The values for the growth at 0.1 µM with M14 and in the test on SK-MEL-28 [10] were 97% and 91%, respectively.

`COc1cc2cc(Oc3ccc(NC(=O)Nc4cc(C(F)(F)F)cc(C(F)(F)F)c4)cc3)c(C)nc2cc1OC`: the growth at 1 µM with UO-31 turned out to be 19%; in the test on NCI-H226 it was 88%; in the test with K562, 32%. Further, the growth at 0.01 µM is 98% with KM12; 94% in the test with MDA-MB-435; 85% with MCF7; 97% with LOX IMVI [8]; 88% with HOP-62 [9]; 93% in the test on HOP-92. The growth at 100 µM is -89% with OVCAR-3; -79% in the test with NCI-H522; -79% in the test with UACC-62; -78% with RXF 393; -90% in the test with LOX IMVI [11]. In addition, in the test with LOX IMVI [7], the growth at 10 µM is -84%. Further, the figures for the growth at 0.1 µM in the test with M14 and in the test with SK-MEL-28 [10] were 97% and 102%, respectively.
